Measured values: US11053242B2, “[9,10-dimethoxy-3-(2-methylpropyl)-1H,2H,3H,4H,6H,7H,11BH-pyrido-[2,1-a]isoquinolin-2-yl]methanol and compounds, compositions and methods relating thereto” (Neurocrine Biosciences, Inc., priority 2015, dated 2021)

Key:
[1] = tested on: vesicular monoamine transporter-2 (VMAT2); details: inhibition of catecholamine uptake by VMAT2, Scherman et al. 1983; cited from earlier work
[2] = Metabolic pathways in human hepatocytes (fraction metabolized); assay type: in vitro ADME; details: LC-MS/MS of metabolites
Procedure: To investigate differences in the metabolism of Compound 1-1 and R,R,R-DHTBZ in vitro both compounds were incubated with human hepatocytes and the amounts of metabolites formed via the respective demethylation, oxidation, and glucuronidation pathways were determined by LC-MS/MS. The instrument responses for all metabolites were assumed to be approximately equal. For both compounds the percentage of overall in vitro metabolism due to the respective pathways (fraction metabolized, fm) was calculated by dividing the LC/MS peak area of the metabolite(s) formed via a given pathway by the sum of the peak areas of all metabolites monitored. […] This demethylation is believed to be catalyzed by CYP2D6.

[3] = biological target: VMAT2 (rat forebrain homogenate) (Rattus norvegicus (Rat), UniProt Q01827); details: radioligand of the VMAT2 binding assay; cited from earlier work
[4] = In vitro human intestinal S9 hydrolysis assay (formation of compound 1-1); details: human intestinal S9, 1 uM, 37° C., up to 60 minutes
[5] = biological target: VMAT2 (human platelet homogenate) (Homo sapiens (Human), UniProt Q05940); test: Human VMAT2 Ki, slightly modified competition binding procedure (Table 11); details: 10 nM 3H-dihydrotetrabenazine;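 also: competition binding with 90 min incubation at 25 °C, after which filter-retained radioligand was measured by scintillation counting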
VMAT2 (human platelet homogenate), sequence (Q05940 whole entry): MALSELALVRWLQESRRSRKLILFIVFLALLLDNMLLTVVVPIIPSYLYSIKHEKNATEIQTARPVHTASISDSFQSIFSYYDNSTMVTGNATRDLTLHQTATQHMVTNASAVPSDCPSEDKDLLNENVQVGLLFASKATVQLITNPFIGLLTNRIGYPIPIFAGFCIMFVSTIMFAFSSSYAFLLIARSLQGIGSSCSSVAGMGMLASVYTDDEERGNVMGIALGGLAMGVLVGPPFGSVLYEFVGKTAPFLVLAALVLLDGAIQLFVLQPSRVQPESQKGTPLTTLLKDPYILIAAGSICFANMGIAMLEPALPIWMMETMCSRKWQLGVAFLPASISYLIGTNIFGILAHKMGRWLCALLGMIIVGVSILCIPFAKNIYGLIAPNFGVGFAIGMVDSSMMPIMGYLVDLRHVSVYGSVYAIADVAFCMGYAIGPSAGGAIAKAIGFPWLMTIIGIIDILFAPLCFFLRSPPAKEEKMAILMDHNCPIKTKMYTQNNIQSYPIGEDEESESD

VMAT2 (rat forebrain homogenate), sequence (Q01827 whole entry): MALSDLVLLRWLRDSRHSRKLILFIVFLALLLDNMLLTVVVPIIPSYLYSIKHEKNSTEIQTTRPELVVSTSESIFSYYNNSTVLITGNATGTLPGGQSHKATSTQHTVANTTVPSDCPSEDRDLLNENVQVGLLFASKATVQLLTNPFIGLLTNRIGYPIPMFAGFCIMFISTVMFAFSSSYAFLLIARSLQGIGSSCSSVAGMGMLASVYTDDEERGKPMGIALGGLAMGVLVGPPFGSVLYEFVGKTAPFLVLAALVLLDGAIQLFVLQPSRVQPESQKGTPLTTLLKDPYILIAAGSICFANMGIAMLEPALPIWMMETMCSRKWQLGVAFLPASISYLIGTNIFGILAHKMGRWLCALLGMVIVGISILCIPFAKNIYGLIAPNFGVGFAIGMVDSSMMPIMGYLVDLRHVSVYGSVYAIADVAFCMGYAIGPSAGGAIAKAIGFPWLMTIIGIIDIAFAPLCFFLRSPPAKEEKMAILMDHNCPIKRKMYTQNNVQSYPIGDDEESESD

Molecule	primary metabolic pathway [2]	S9 Assay (ability to form compound 1-1) [4]	Ki [5] [nM]	other results
COc1cc2c(cc1OC)[C@H]1C[C@@H](CO)[C@H](CC(C)C)CN1CC2 [Compound 1-1, [(2R,3S,11bR)-9,10-Dimethoxy-3-(2-methylpropyl)-1H,2H,3H,4H,6H,7H,11bH-pyrido[2,1-a]isoquinolin-2-yl]methanol]	primarily metabolized by glucuronidation			
COc1cc2c(cc1OC)C1CC(O)C(CC(C)C)CN1CC2 [R,R,R-DHTBZ, 3-isobutyl-9,10-dimethoxy-1,3,4,6,7,11b-hexahydro-2H-pyrido[2,1-a]isoquinolin-2-ol, reference compound]	primarily metabolized by demethylation			
^3H-dihydrotetrabenezine				Kd [3]: 2.6 nM
COc1cc2c(cc1OC)[C@H]1C[C@@H](COC(=O)N3CC(C)NC(C)C3)[C@H](CC(C)C)CN1CC2 (stereo partly drawn) [Compound 6-11, [(2R,3S,11bR)-9,10-dimethoxy-3-(2-methylpropyl)-1H,2H,3H,4H,6H,7H,11bH-pyrido[2,1-a]isoquinolin-2-yl]methyl 3,5-dimethylpiperazine-1-carboxylate]		+	< 10	
COc1cc2c(cc1OC)[C@H]1C[C@@H](COC(=O)NC(C)CC(=O)O)[C@H](CC(C)C)CN1CC2 (stereo partly drawn) [Compound 5-26, 3-[({[(2R,3S,11bR)-9,10-dimethoxy-3-(2-methylpropyl)-1H,2H,3H,4H,6H,7H,11bH-pyrido[2,1-a]isoquinolin-2-yl]methoxy}carbonyl)amino]butanoic acid]		+	> 500	
